# Where two headings read alike, the source gives them in different places.
# Legend:
# MeWo cells = assay: Cell viability assay (XTT or Presto Blue), MeWo; format: cell-based, human; details: increasing concentrations, different incubation times
# Source text: (§1) Cells grew in Dulbecco’s Modified Eagle Medium (DMEM) high glucose (Sigma-Aldrich) supplemented with heat-inactivated 10% fetal bovine serum (FBS) (HyClone™, GE Healthcare, IL, USA). […] Primary human melanocytes (human epidermal melanocytes, neonatal, light pigmented, HEMn-LP) were purchased from Invitrogen (Waltham, MA, USA, C-002-5C).
# (§2) Two colorimetric assays were used to study the cytotoxic effects of the selected compounds: the XTT Cell Proliferation Kit II (Roche) and Presto Blue™ Cell Viability Reagent (Invitrogen). Exponentially growing cell lines seeded at 20,000 cells/well in 96-well flat bottom plates (Sarstedt) were incubated overnight in 150 µL of the corresponding growth medium. The following day, the medium was replaced by fresh medium (150 µL) containing 1% FBS (except for melanocytes) and 0.9% DMSO in the presence or absence of different concentrations of compounds. A2058 and MeWo cells were treated with increasing compound concentrations for cell viability assays. […] Cell viability in plates treated with XTT was determined by reading the absorbance at 490 nm in a Synergy HTX plate reader (BioTek). […] In both cases, the absorbance of the medium was subtracted from cell-containing wells. Control values (without compounds but with 0.9% DMSO) were taken as 100% viability.
# Hsc70 + DnaJB1 = target: T1, Hsc70 + DnaJB1 (Homo sapiens, UniProt P11142); assay: Reactivation of G6PDH aggregates by the binary chaperone mixture; format: biochemical; details: 2 µM Hsc70, 0.5 µM DnaJB1, 0.4 µM G6PDH aggregates; means ± SD of three experiments
# T1 construct: His6-SUMO (N, cleaved yes); made in house; host or cells: E. coli BL21 Rosetta
# Protocol: (§3) Subsequently, aggregates were stabilized for 30 min at 30 °C. The properties of these aggregates have been previously reported, and typically show a hydrodynamic radius of approximately 500–600 nm. Aggregates (0.4 µM final concentration) were added to samples containing 2 µM Hsc70 and 0.5 µM DnaJB1 in the absence or presence of 0.4 µM Apg2. […] A preincubation of the samples with compounds for 30 min at 30 °C was done prior to starting the reaction. The reaction was started with the addition of 2 mM ATP and the ATP-regeneration system (3 mM PEP and 20 ng/mL PK). Final sample volume was 100 µL. Reactivation was monitored at 30 °C for 180 min. At different times of the reaction, 5 µL of sample were added to 250 µL buffer containing 50 mM Tris-HCl pH 7.5, 50 mM KCl, 20 mM MgCl2, 10 mM DTT, 1 mM NADP^+, 2.5 mM G6P (Sigma-Aldrich). NADPH formation was measured recording the absorbance increase at 340 nm in a Synergy HTX plate reader (BioTek, Winooski, VT, USA) in transparent 96-well plates with flat bottom (Sarstedt, Newton, NC, USA) for 5 min. Reactivation percentages were calculated considering the slope of NADPH formation for native G6PDH as 100% activity. […] IC50 values were estimated with a sigmoidal dose-response ligand-binding equation.
# A2058 cells = assay: Cell viability assay (XTT or Presto Blue), A2058; format: cell-based, human; details: for Effect on cell viability (toxicity), A2058: increasing concentrations, different incubation times
# Source text: as §1, §2
# Hsc70 + DnaJB1 + Apg2 = target: T2, Hsc70 + DnaJB1 + Apg2 (Homo sapiens, UniProt P11142+P34932); assay: Reactivation of G6PDH aggregates by the ternary chaperone mixture; format: biochemical
# T2 construct: His6-SUMO (N, cleaved yes); made in house; host or cells: E. coli BL21 Rosetta
# Protocol: as §3
# [1] = tested on: non-transformed cell lines; parameters: method as in PMID 19027770, PMID 17981006, PMID 18171263; details: cited from earlier work
# [2] = tested on: melanocytes (HEMn-LP non-malignant skin cells); assay: Cell viability assay (XTT or Presto Blue), primary melanocytes; format: cell-based, human; details: 20 µM, up to 12 h
# Source text: as §1, §2
# fibroblasts (MRC-5) = assay: Cell viability assay (XTT or Presto Blue), fibroblasts; format: cell-based, human; details: 20 µM, up to 12 h
# Source text: as §1, §2
# [3] = 2 µM Hsc70, 0.5 µM DnaJB1, 0.4 µM Apg2, 0.4 µM G6PDH aggregates, means ± SD of three experiments, read-out: IC50 G6PDH Reactivation Hsc70 + DnaJB1 + Apg2
# T1 sequence (P11142 whole entry): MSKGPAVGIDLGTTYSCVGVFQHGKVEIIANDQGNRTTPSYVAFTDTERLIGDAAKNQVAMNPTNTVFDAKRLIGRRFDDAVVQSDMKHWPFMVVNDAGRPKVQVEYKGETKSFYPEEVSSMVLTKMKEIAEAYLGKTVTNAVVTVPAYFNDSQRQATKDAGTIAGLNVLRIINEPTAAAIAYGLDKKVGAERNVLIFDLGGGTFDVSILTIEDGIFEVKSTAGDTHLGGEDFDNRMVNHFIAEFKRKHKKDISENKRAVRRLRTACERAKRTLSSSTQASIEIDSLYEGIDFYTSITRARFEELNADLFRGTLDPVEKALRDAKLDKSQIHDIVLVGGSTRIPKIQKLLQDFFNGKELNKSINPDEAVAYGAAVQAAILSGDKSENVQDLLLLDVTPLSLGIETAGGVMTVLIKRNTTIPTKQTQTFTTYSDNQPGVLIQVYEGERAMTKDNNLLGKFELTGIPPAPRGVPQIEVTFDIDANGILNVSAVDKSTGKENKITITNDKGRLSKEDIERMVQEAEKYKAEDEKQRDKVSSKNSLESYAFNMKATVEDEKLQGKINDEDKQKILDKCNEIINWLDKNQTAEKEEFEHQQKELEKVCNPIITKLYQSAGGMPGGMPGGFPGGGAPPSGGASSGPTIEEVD
# T2 sequence (P11142 whole entry): as above
# T2 sequence (P34932 whole entry): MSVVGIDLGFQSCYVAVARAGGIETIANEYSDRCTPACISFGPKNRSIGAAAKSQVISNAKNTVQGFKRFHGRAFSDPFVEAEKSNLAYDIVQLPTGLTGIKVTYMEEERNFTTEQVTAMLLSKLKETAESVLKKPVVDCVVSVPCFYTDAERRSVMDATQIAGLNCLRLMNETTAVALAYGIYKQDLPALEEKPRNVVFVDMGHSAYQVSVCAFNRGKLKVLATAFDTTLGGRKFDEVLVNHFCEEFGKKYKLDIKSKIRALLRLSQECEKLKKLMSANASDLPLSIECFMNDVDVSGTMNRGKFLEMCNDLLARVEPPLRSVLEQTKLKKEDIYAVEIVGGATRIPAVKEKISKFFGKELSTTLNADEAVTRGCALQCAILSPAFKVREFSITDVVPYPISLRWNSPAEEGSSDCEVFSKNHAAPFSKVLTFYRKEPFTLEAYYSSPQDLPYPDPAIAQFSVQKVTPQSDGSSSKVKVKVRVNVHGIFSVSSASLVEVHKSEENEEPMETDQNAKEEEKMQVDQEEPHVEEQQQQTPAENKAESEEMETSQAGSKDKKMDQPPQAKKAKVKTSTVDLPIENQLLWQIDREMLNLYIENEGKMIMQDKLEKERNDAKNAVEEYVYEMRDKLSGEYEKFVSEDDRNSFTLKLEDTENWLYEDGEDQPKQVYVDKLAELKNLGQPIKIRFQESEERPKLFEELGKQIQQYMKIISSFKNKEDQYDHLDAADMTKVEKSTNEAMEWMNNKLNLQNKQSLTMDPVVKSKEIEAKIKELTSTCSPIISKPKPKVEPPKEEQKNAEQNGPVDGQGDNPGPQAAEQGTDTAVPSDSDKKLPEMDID
Structure (SMILES),"Effect on cell viability (toxicity), MeWo (MeWo cells)",IC50 (Hsc70 + DnaJB1) [µM],"Effect on cell viability (toxicity), A2058 (A2058 cells)",IC50 (Hsc70 + DnaJB1 + Apg2; [3]) [µM],Toxicity in non-transformed cell lines [1],IC50 (Hsc70 + DnaJB1 + Apg2) [µM],Toxicity in melanocytes [2],Fold lower toxic concentration in melanoma cell lines than IC50 for the isolated chaperone system (A2058 cells; melanoma cell lines (A2058 and MeWo) versus IC50 of the isolated chaperone system),Toxicity in fibroblasts (fibroblasts (MRC-5))
"[H]/N=C(\N/C(=N/[H])NCCCCCCNC(=N)NC(=N)Nc1ccc(Cl)cc1)Nc1ccc(Cl)cc1 [Compound 1, (1E)-2-[6-[[amino-[(E)-[amino-(4-chloroanilino)methylidene]amino]methylidene]amino]hexyl]-1-[amino-(4-chloroanilino)methylidene]guanidine]",Cell viability decreased,11.9 ± 0.2,Cell viability decreased,14.5 ± 1.8,toxicity in several non-transformed cell lines,–,–,–,–
"CCc1oc2ccccc2c1C(=O)c1cc(Br)c(O)c(Br)c1 [Compound 3, (3,5-dibromo-4-hydroxyphenyl)-(2-ethyl-1-benzofuran-3-yl)methanone]",no toxicity was observed,10.1 ± 0.4,no toxicity was observed,–,–,17.6 ± 0.1,–,–,–
CC=C(C)C(=O)OC1C(OC(C)=O)C2(CO)C(O)CC3(C)C(=CCC4C5(C)CCC(OC6OC(C(=O)O)C(OC7OC(CO)C(O)C(O)C7O)C(O)C6OC6OC(CO)C(O)C(O)C6O)C(C)(CO)C5CCC43C)C2CC1(C)C (centres unmarked) [Compound 4],–,37.3 ± 1.8,–,47 ± 5.6,–,–,–,–,–
"Cl.O[C@@H](c1cc(C(F)(F)F)nc2c(C(F)(F)F)cccc12)[C@H]1CCCCN1 [Compound 5, (S)-[2,8-bis(trifluoromethyl)quinolin-4-yl]-[(2R)-piperidin-2-yl]methanol hydrochloride]",Cell viability decreased,107 ± 7.5,Cell viability decreased,97.3 ± 21.1,–,–,no toxicity was observed,around 7 fold,no toxicity was observed
"O=C(O)Cc1cc(I)c(Oc2ccc(O)c(I)c2)c(I)c1 [Compound 6, 2-[4-(4-hydroxy-3-iodophenoxy)-3,5-diiodophenyl]acetic acid]",no toxicity was observed,–,no toxicity was observed,–,–,–,–,–,–
